How the values were obtained:
[1] = test system: HCT116 human colon carcinoma xenograft; experiment: HCT116 xenograft model in nude mice (hypoxic tumor); assay type: in vivo; settings: for efficacy at slowing tumor growth in HCT116 (high hypoxia) versus 786O (low hypoxia) tumors: comparison of HCT116 and 786O xenografts in nude mice
Procedure: Human tumor cell lines HCT116 (ATCC #CRL-247; Schroy P C, et al. Cancer 76: 201-209, 1995) and 786-O (ATCC #CRL-1932; Williams R D, et al. In Vitro 12: 623-627, 1976), were obtained from the American Type Culture Collection (Manassus, Va., USA) were cultured using routine methods until a sufficient number of cells were obtained for implantation. Studies were conducted on animals between 7 and 12 weeks of age at implantation. To implant HCT116 tumor cells into nude mice, the cells were trypsinized, washed in PBS and resuspended at a concentration of 75×10^6 cells/ml in McCoy's modified medium with 50% of BD Matrigel® Basement Membrane Matrix (BD Biosciences®, Bedford, Mass., USA). To implant 786-O tumor cells into nude mice, the cells were trypsinized as above, washed in PBS and resuspended at a concentration of 75×10^6 cells/ml in RPMI 1640 medium with 50% of BD Matrigel® Basement Membrane Matrix. Using a 27 gauge needle and 1 cc syringe, 0.1 ml of the cell suspension was injected into the corpus adiposum of nude mice. […] The location permits palpation and measurement of the tumors using external calipers. Tumor volumes (V) were calculated by caliper measurement of the width (W), length (L) and thickness (T) of tumors using the following formula: V=0.5236×(L×W×T).

[2] = test system: locally advanced or metastatic NSCLC; settings: erlotinib 150 mg orally once daily; cited from earlier work
[3] = test system: locally advanced or metastatic NSCLC; settings: maintenance, erlotinib 150 mg once daily; difference not statistically significant; cited from earlier work
[4] = test system: locally advanced, unresectable or metastatic pancreatic cancer; settings: 100 mg cohort, arms: gemcitabine plus erlotinib vs gemcitabine alone, cited from earlier work
JAK2V617F = JAK2V617F (Homo sapiens, UniProt O60674, V617F); settings: cited from earlier work
[5] = test system: advanced relapsed/refractory NSCLC; settings: cited from earlier work
solid tumors = settings: once-weekly dosing, evaluable patients; cited from earlier work
treatment-naïve RCC = settings: cited from earlier work
[6] = test system: gastrointestinal stromal tumor (GIST); settings: cited from earlier work
[7] = test system: GIST following progression on or intolerance to imatinib; settings: 50 mg once daily Schedule 4/2; 5 of 55 patients; cited from earlier work
[8] = test system: 786-O human renal carcinoma xenograft; experiment: 786-O xenograft model in nude mice (low hypoxia tumor); assay type: in vivo
Procedure: Human tumor cell lines HCT116 (ATCC #CRL-247; Schroy P C, et al. Cancer 76: 201-209, 1995) and 786-O (ATCC #CRL-1932; Williams R D, et al. In Vitro 12: 623-627, 1976), were obtained from the American Type Culture Collection (Manassus, Va., USA) were cultured using routine methods until a sufficient number of cells were obtained for implantation. Studies were conducted on animals between 7 and 12 weeks of age at implantation. To implant HCT116 tumor cells into nude mice, the cells were trypsinized, washed in PBS and resuspended at a concentration of 75×10^6 cells/ml in McCoy's modified medium with 50% of BD Matrigel® Basement Membrane Matrix (BD Biosciences®, Bedford, Mass., USA). To implant 786-O tumor cells into nude mice, the cells were trypsinized as above, washed in PBS and resuspended at a concentration of 75×10^6 cells/ml in RPMI 1640 medium with 50% of BD Matrigel® Basement Membrane Matrix. Using a 27 gauge needle and 1 cc syringe, 0.1 ml of the cell suspension was injected into the corpus adiposum of nude mice. The corpus adiposum is a fat body located in the ventral abdominal vicera in the right quadrant of the abdomen at the juncture of the os coxae (pelvic bone) and the os femoris (femur). The location permits palpation and measurement of the tumors using external calipers. Tumor volumes (V) were calculated by caliper measurement of the width (W), length (L) and thickness (T) of tumors using the following formula: V=0.5236×(L×W×T). Animals were randomized into treatment groups so that the average tumor volumes of each group were similar at the start of dosing.
A tumor model in which the tumors have relatively high and low levels of LDH5, indicating high and low levels of hypoxia, using human tumor cell lines HCT116 and 786-O was established as set forth in the previous example.
As above, HCT116 and 786-O cells were cultured and implanted into nude mice using the methods in the previous example. Tumor growth was measured using calipers. Prior to treatment with the various agents, tumors were permitted to develop in vivo until they reached approximately 150 mm^3 in volume, which typically required 2-3 weeks following implantation. Animals were randomized into treatment groups so that the average tumor volumes of each group were similar at the start of dosing.
Tumor volume was monitored throughout the course of the study, until up to about 40 days from the date of tumor implantation. The exact number of days of the study depended on a number of factors including, for example, the number of days from implantation for the tumors to reach the desired volume.

[9] = test system: metastatic colorectal cancer; settings: bevacizumab plus 5-FU/Leucovorin vs 5-FU/Leucovorin alone; not statistically significant; cited from earlier work
[10] = test system: metastatic colorectal cancer; settings: arms: bevacizumab plus 5-FU/Leucovorin vs IFL regimen alone; cited from earlier work
[11] = test system: metastatic colorectal cancer; settings: bevacizumab and chemotherapy vs bevacizumab and chemotherapy alone, cited from earlier work; for median PFS: oxaliplatin stratum, arms: panitumumab
renal cancer = settings: cited from earlier work
[12] = test system: metastatic pancreatic cancer; settings: cited from earlier work
[13] = test system: EGFR-expressing, metastatic carcinoma of the colon or rectum (mCRC); settings: panitumumab 6 mg/kg every two weeks plus best supportive care; cited from earlier work

Sequence of JAK2V617F (O60674 whole entry V617F): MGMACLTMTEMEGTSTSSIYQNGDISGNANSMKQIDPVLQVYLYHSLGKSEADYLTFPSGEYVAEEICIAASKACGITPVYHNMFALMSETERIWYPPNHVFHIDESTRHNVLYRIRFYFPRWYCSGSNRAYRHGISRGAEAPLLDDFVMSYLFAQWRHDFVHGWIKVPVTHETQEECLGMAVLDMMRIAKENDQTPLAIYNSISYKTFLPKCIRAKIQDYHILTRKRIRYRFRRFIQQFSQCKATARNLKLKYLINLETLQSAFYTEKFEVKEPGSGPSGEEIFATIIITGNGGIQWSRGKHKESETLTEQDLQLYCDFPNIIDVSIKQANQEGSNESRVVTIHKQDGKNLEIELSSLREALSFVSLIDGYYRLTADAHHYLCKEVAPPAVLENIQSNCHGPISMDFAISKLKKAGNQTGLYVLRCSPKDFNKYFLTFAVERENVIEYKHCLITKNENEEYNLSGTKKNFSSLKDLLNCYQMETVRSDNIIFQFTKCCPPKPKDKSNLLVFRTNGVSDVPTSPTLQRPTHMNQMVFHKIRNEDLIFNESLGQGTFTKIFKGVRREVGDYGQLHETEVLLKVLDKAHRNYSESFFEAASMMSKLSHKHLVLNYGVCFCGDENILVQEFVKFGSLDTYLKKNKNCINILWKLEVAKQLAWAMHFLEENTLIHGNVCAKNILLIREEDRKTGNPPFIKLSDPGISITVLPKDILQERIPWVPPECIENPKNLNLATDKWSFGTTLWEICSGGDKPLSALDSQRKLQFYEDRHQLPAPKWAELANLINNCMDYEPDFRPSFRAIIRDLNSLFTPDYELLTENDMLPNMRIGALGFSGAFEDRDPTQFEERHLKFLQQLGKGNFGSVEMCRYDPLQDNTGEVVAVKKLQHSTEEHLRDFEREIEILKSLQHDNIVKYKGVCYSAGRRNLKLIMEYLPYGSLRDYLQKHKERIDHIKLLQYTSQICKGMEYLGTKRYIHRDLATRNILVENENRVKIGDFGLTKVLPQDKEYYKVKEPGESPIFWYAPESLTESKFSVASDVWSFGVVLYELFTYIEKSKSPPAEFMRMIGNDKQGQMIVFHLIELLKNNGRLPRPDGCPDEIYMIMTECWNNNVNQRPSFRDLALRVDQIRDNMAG

Question: What does the source list for `C#Cc1cccc(Nc2ncnc3cc(OCCOC)c(OCCOC)cc23)c1` [erlotinib]?
Answer: efficacy at slowing tumor growth in HCT116 (high hypoxia) versus 786O (low hypoxia) tumors [1]: more effective at slowing tumor growth in tumors with high levels of hypoxia; tumor growth rate versus control ([1]; erlotinib 1x/week P.O., p=0.0224): reduced the growth rate of the tumor as compared to control; median response duration [2]: 34.3 weeks; progression free survival [2]: 9.9 weeks; survival [2]: 6.7 months; tumor response [2]: 8.9%; overall survival [3]: 12 weeks; progression free survival ([4]; p=0.006): 3.8 months; survival ([4]; p=0.028): 6.4 months; JAK2V617F activity (JAK2V617F): potent inhibitor of JAK2V617F activity

Question: For `CC(C)c1cc(-c2nnc(O)n2-c2ccc3c(ccn3C)c2)c(O)cc1O` [ganetespib], which disease control rate ([5]; broad population, single agent) is on record?
Answer: 54%

Question: And the “patients with durable, objective responses” value ([5]; patients with ALK rearrangement, four of eight)?
Answer: 50%

Question: And the “patients who received ganetespib for 16 weeks or more” value ([5]; patients with ALK rearrangement, seven of eight)?
Answer: 88%

Question: What about the “patients with tumor shrinkage” value ([5]; patients with ALK rearrangement, six of eight) of the same molecule?
Answer: 75%

Question: And the “efficacy at slowing tumor growth in HCT116 (high hypoxia) versus 786O (low hypoxia) tumors” value [1]?
Answer: not found to work better in the tumors with a higher level of hypoxia

Question: What about the disease control (solid tumors) of the same molecule?
Answer: more than half of all evaluable patients experienced disease control

Question: Which “efficacy at slowing tumor growth in HCT116 (high hypoxia) versus 786O (low hypoxia) tumors” value [1] does the source give for `CCN(CC)CCNC(=O)c1c(C)[nH]c(/C=C2\C(=O)Nc3ccc(F)cc32)c1C` [sunitinib] here?
Answer: not found to work better in the tumors with a higher level of hypoxia

Question: And the “PFS versus IFN-α” value (treatment-naïve RCC; 50 mg sunitinib once daily Schedule 4/2)?
Answer: statistically significant advantage for sunitinib over IFN-α in the endpoint of PFS

Question: What about the “median OS” value (treatment-naïve RCC; final analysis, arms: sunitinib vs IFN-α) of the same molecule?
Answer: 114.6 weeks

Question: What about the “ORR versus IFN-α arm” value (treatment-naïve RCC; in vivo) of the same molecule?
Answer: higher

Question: What about the “median OS” value ([6]; final analysis, sunitinib arm) of the same molecule?
Answer: 72.7 weeks

Question: What about the “time to tumor progression (TTP) versus placebo” value ([6]; interim analysis, 50 mg once daily Schedule 4/2) of the same molecule?
Answer: statistically significant advantage for sunitinib over placebo in TTP

Question: And the “OS HR” value ([6]; sunitinib vs placebo, final analysis)?
Answer: 0.876

Question: And the PR rate [7]?
Answer: 9.1%

Question: With “bevacizumab: recombinant humanized monoclonal IgG1 antibody that binds to and inhibits human vascular endothelial growth factor (VEGF)” as the molecule, how does the “tumor burden versus control” value ([8]; higher dose of bevacizumab (4 mg/kg) i.p., p=0.011) read?
Answer: greatest tumor burden

Question: What about the “tumor burden versus control” value ([8]; low dose bevacizumab (1 mg/kg) i.p., p=0.437) of the same molecule?
Answer: no significant difference in tumor burden

Question: And the “improvement in median survival” value [9]?
Answer: 29%

Question: And the progression-free survival [10]?
Answer: 8.7 months

Question: What about the “median PFS” value [11] of the same molecule?
Answer: 10.5 months

Question: And the “tumor growth versus control” value ([1]; bevacizumab 4 mg/kg i.p., p=0.0424)?
Answer: reduced the growth of the tumor as compared to control

Question: What about the “efficacy at slowing tumor growth in HCT116 (high hypoxia) versus 786O (low hypoxia) tumors” value [1] of the same molecule?
Answer: more effective at slowing tumor growth in tumors with high levels of hypoxia

Question: What about the “tumor growth versus control” value ([1]; lower dose of bevacizumab (1 mg/kg) i.p., p=0.1274) of the same molecule?
Answer: small trend to decreased tumor growth

Question: And the “patients with decreased tumor size” value (renal cancer; arms: bevacizumab and interferon-alpha vs interferon-alpha alone)?
Answer: 30%

Question: And the “increase in progression-free survival time” value (renal cancer; interferon-alpha with bevacizumab vs interferon-alpha alone)?
Answer: about 5 months

Question: And the “progression free survival HR” value ([12]; bevacizumab vs placebo, both with gemcitabine and erlotinib, P=0.0002)?
Answer: 0.73

Question: And the median overall survival ([12]; bevacizumab, gemcitabine and erlotinib arm (306 patients))?
Answer: 7.1 months

Question: Which “median PFS” value [11] does the source give for “panitumumab: recombinant, human IgG2 kappa monoclonal antibody that binds to the human EGFR” here?
Answer: 8.8 months

Question: What about the PFS hazard ratio ([11]; panitumumab, p-value=0.0024) of the same molecule?
Answer: 1.44

Question: And the “efficacy at slowing tumor growth in HCT116 (high hypoxia) versus 786O (low hypoxia) tumors” value [1]?
Answer: not found to work better in the tumors with a higher level of hypoxia

Question: What about the PFS [13] of the same molecule?
Answer: 96 days
